Test system: pointes ponto-géniculo-occipitales (P.G.O.)
Test: Reserpine-induced ponto-geniculo-occipital (PGO) spikes in the curarized cat
Assay type: in vivo, chat
Settings: Felis catus, iv, 0.5 h; dose reducing number of PGO spikes by 50%; cat given réserpine 0,75 mg/kg i.p.; increasing i.v. doses every 30 min, 4H30 after réserpine; read-out: P G O DE 50
Excerpt: Par ailleurs in a étudié l'action des drogues sur les pointes pontc-géniculo-occipitales lors du syndrome réser- pinique chez le chat curarisé, afin de mettre en évidence les propriétés antidépressives des composés.
Che= le chat, on enregistre une activité spécifique au niveau du pont, du noyau genouillé latéral et du cortex occipital qui fut appelée pointes ponto-géniculo-occipitales (P.G.O.).
Cette activité spontanée, (pointes P.G.O.), apparaissant lors du =ycle veille-sommeil, peut être induite par la réserpiné, agent pharmacologique diminuant le taux des monoamines cérébrales.
Cette activité électroencéphalographique, modulée par des mécanismes neuronaux sous le contrôle de neurotransmetteurs sy=aptiques, constitue donc un test pharmacologique pour l'étude de l'action centrale des drogues.
Toutes les expériences sont réalisées de manière aiguë sur des chats des deux sexes de 2 à 3 kg.
Avant le débtt de la préparation chirurgicale effectuée scis narcose à l'éther, l'animal reçoit une injection in- trapéritonéale de 0,75 mg/kg i.p. de réserpine.
Le chat est intubé pour permettre une ventilation artificielle.
Un anesthésique local (xylocalne à 2%) est injecté au niveau des points de pression et des incisions.
Des canules sont placées au niveau de la veine fémorale, pour l'injection des produits et l'infusion d'un agent curarisant, la gallamine triethiodide (Flaxédil^R), et de l'artère fémorale pour l'enregistrement de la pression artérielle.
Des électrodes monopolaires sont vissées α- niveau cortical et des électrodes bipolaires coaxiales sont placées sté- réotaxiquement au niveau des noyaux genouillés latéraux.
L'animal curarisé et ventilé artificiellement est maintenu à température constante tout au long de l'expérience.
L'électroencéphalogramme, l'électrocardiogramme et la pression artérielle sont enregistrés à l'aide d'un polygraphe : Grass modèle 79 D.
Des doses croissantes (0,1; 0,3; 1; 3; 10 et 30 mg/kg) des produits à étudier sont injectées par voie intraveineuse toutes les 30 minutes, 4H30 après l'administration de la réserpine.
Le nombre des pointes P.G.O. est comptabilisé automatiquement par périodes de 10 minutes et exprimé en pourcentage par périodes de 30 minutes en prenant la valeur obtenue lors des 30 minutes de contrôle comme référence (100%).
La dose efficace réduisant de 50% (DE 50) le nombre des pointes P.G.O. est calculée à l'aide d'une courbe de regression semi-logarithmique.

| Compound | ED50 |
| --- | --- |
| C1=C(CSc2ccccc2)N2CCN=C2S1 [compound 1, Chlorhydratede phénylthiométhyl-3 dihydro-5,6 imidazo [2,1 - b] thiazole] | 0.4 mg/kg |
| COc1ccccc1OCC1=CSC2=NCCN12 [compound 3] | 0.4 mg/kg |
| C1=C(COc2ccccc2)N2CCN=C2S1 [compound 5, Chlorhydrate du phénoxyméthyl-3 dihydro-5,6 imidazo [2,1-b] thiazole] | 1.2 mg/kg |
| COc1ccc(OCC2=CSC3=NCCN23)cc1 [compound 6] | 1 mg/kg |
| Clc1cccc(OCC2=CSC3=NCCN23)c1 [compound 9] | 1 mg/kg |
| Cc1ccccc1OCC1=CSC2=NCCN12 [compound 10, Chlorhydratede (méthyl-2 phénoxy-méthyl)-3 dihydro-5,6 imidazo-[2,1-b] thiazole] | 0.3 mg/kg |
| Clc1ccccc1OCC1=CSC2=NCCN12 [compound 11] | 0.24 mg/kg |
| Cc1ccc(OCC2=CSC3=NCCN23)cc1 [compound 12] | 0.8 mg/kg |
| Brc1ccccc1OCC1=CSC2=NCCN12 [compound 18] | 0.14 mg/kg |
| FC(F)(F)c1ccccc1OCC1=CSC2=NCCN12 [compound 21] | 0.2 mg/kg |
| CCOc1ccccc1OCC1=CSC2=NCCN12 [compound 24] | 0.5 mg/kg |
| C1=C(COc2ccccc2-c2ccccc2)N2CCN=C2S1 [compound 31] | 0.24 mg/kg |

From patent EP0002400A1, “Thiazole derivatives, their preparation, intermediates and their use in therapeutics” (SYNTHELABO, priority 1977, dated 1979)
